≈ marks a conversion by molar mass, not a printed value. Blank lines part the entries; values can stand above or below the compound they belong to.
Assays:
[1] = test system: C. albicans; experiment: Time kill assays; format: cell-based, Candida albicans
[2] = test system: Candida albicans (WTBF-50); experiment: Antifungal activity assay; format: cell-based
[3] = test system: Cryptococcus neoformans Cn18 (WTBF-106); experiment: Antifungal activity assay; format: cell-based; settings: MIC ratio versus P2

SMILES: O=C(O)C(F)(F)F.c1cc2cc(-c3ccc(-c4cc5ccc(C6=NCCCN6)cc5[nH]4)cc3)[nH]c2cc1C1=NCCCN1 [Compound P10]
time to reduce viable cells below the limit of detection ([1]; 2× the MIC): ≤ 8 h

SMILES: CC(=O)O.c1cc2cc(-c3ccc(-c4ccc5cc(C6=NCCCN6)oc5c4)cc3)[nH]c2cc1C1=NCCCN1 [Compound P34]
fungicidal activity relative to positive control ([1]; 2× the MIC and 4× the MIC, versus AMB at 4× the MIC): comparable to that of AMB

SMILES: CC(=O)O.c1cc2cc(-c3ccc(-c4ccn5cc(C6=NCCCN6)nc5c4)cc3)[nH]c2cc1C1=NCCCN1 [Compound P33]
fold more potent than P35 against Candida spp. ([2]; MIC ratio versus P35): > 10 fold

SMILES: CC1CNC(c2ccc3cc(-c4ccc(-c5cc6ccc(C7=NC(C)CN7)cc6[nH]5)cc4)[nH]c3c2)=N1.O=C(O)C(F)(F)F (centres unmarked) [Compound P9]
fold more potent than P2 against Cryptococcus neoformans [3]: 6 fold

MIC ([2]; Candida albicans): 0.125 µg/mL (≈ 0.135 µM)
SMILES: C[C@@H]1[C@H](O)[C@@H](C)/C=C/C=C/C=C/C=C/C=C/C=C/C=C/[C@H](O[C@@H]2O[C@H](C)[C@@H](O)[C@H](N)[C@@H]2O)C[C@@H]2O[C@](O)(C[C@@H](O)C[C@@H](O)[C@H](O)CC[C@@H](O)C[C@@H](O)CC(=O)O[C@H]1C)C[C@H](O)[C@H]2C(=O)O [AMB, Amphotericin B, reference compound]

Reference: article PMC4554983 (Bioorganic & medicinal chemistry, 2015)
